Results on 1 compound are retold here after patent US12673022B2, “Drug delivery system using solution” (Kyoto University, priority 2018, dated 2026).

The structures appear in SMILES notation.

The experiment concerns C57BL/6J mouse right lower limb gastrocnemius. The experiment is described as follows: DNA mutation introduction efficiency using mRosa26 gRNA (T7E1 assay) after local administration. The following applies: Example 6; administration solution 2: 25 mM or 250 mM 2′-deoxycytidine, 6-phospho-D-gluconic acid, N-carbamyl-L-aspartic acid or 2-deoxy-D-glucose-6-phosphate, 533 mM sodium chloride; 50 μL once; Dunnett's test; FIG. 10. In kind it is in vivo. On the procedure:
Cas9 protein (20 μg), mRosa26 gRNA (5 μg), 10×PBS (5 μL) and a 2.0 M aqueous 2′-deoxycytidine solution (6.25 μL) were mixed so as to obtain an aqueous solution having final concentrations of 400 ng/μL Cas9 protein, 100 ng/μL mRosa26 gRNA, 533 mM sodium chloride and 250 mM 2′-deoxycytidine. The concentration of the resultant solution was adjusted to be 533 mM with a 5 M aqueous sodium chloride solution, diluted with UltraPure DNase/RNase-Free Distilled Water up to a liquid volume of 50 μL and incubated at normal temperature for 15 minutes. […] The Cas9 protein herein was subjected to buffer replacement with 250 mM sodium chloride by use of Amicon® Ultra 2 mL Centrifugal Filters and then put in use.
Cas9 protein (40 μg), mRosa26 gRNA (10 μg), 10×PBS (5 μL), and a […] compound stock solution (25 μL) were mixed so as to obtain final concentrations: 800 ng/μL Cas9 protein, 200 ng/μL mRosa26 gRNA, 533 mM sodium chloride and 250 mM compound. […]
To the right lower limb gastrocnemius of each of 9 weeks-old male C57BL/6J mice (CLEA Japan, Inc), administration solution 1 or administration solution 2 and PBS (50 μL) were administered. […] The resultant PCR product was purified by QIAquick PCR purification kit (QIAGEN), treated with T7 Endonuclease I (NEB) and analyzed by Agilent 4200 TapeStation (Agilent). […]
As shown in FIG. 10 and FIG. 11, to find statistical significant difference between GABA and each conditions of the compounds, Dunnett's multiple comparison test using DNA mutation introduction efficiency, Indel (%), and exon skipping efficiency, was carried out. It was determined that if P value is less than 0.05, these is a statistically significant difference. […]
A solution for transduction containing 2′-deoxycytidine as a compound (A3) and sodium chloride as the (B) salt was prepared. […] Administration solution 1 was locally administered to the mouse right lower limb gastrocnemius and the activity to cleave a target gene was evaluated. […]

With `NC(=O)N[C@@H](CC(=O)O)C(=O)O` [N-Carbamyl-L-aspartic acid], the “Genome editing efficiency (indel (%)) compared to 250 mM GABA” value is recorded as “statistically significant results compared to GABA”.
